# Numbers after ± are expanded uncertainties.
# Settings: Hot wire method
smiles,measurement,setting,value
"C=C(F)C(F)(F)F [2,3,3,3-tetrafluoro-1-propene]",thermal conductivity,"332.05 K, 300 kPa, Gas",0.01662 ± 0.00056 W/m/K
same,thermal conductivity,"332.05 K, 1511 kPa, Gas",0.01807 ± 0.00032 W/m/K
same,thermal conductivity,"332.06 K, 821 kPa, Gas",0.01681 ± 0.00056 W/m/K
same,thermal conductivity,"332.12 K, 1388 kPa, Gas",0.01774 ± 0.00032 W/m/K
same,thermal conductivity,"332.13 K, 627 kPa, Gas",0.01673 ± 0.00056 W/m/K
same,thermal conductivity,"332.19 K, 1235 kPa, Gas",0.01737 ± 0.00031 W/m/K
same,thermal conductivity,"332.21 K, 465 kPa, Gas",0.01667 ± 0.00056 W/m/K
same,thermal conductivity,"332.27 K, 1074 kPa, Gas",0.01714 ± 0.00031 W/m/K
same,thermal conductivity,"332.3 K, 974 kPa, Gas",0.01699 ± 0.00057 W/m/K
same,thermal conductivity,"332.31 K, 299 kPa, Gas",0.01673 ± 0.00056 W/m/K
same,thermal conductivity,"332.33 K, 1511 kPa, Gas",0.01806 ± 0.00032 W/m/K
same,thermal conductivity,"332.36 K, 820 kPa, Gas",0.01686 ± 0.00056 W/m/K
same,thermal conductivity,"332.38 K, 202 kPa, Gas",0.0168 ± 0.00056 W/m/K
same,thermal conductivity,"332.41 K, 1386 kPa, Gas",0.01772 ± 0.00032 W/m/K
same,thermal conductivity,"332.46 K, 626 kPa, Gas",0.01677 ± 0.00056 W/m/K
same,thermal conductivity,"332.48 K, 1233 kPa, Gas",0.01739 ± 0.00031 W/m/K
same,thermal conductivity,"332.55 K, 102 kPa, Gas",0.01703 ± 0.00057 W/m/K
same,thermal conductivity,"332.56 K, 463 kPa, Gas",0.01674 ± 0.00056 W/m/K
same,thermal conductivity,"332.58 K, 1073 kPa, Gas",0.01716 ± 0.00031 W/m/K
same,thermal conductivity,"332.62 K, 973 kPa, Gas",0.01704 ± 0.00057 W/m/K
same,thermal conductivity,"332.62 K, 1511 kPa, Gas",0.01806 ± 0.00032 W/m/K
same,thermal conductivity,"332.67 K, 299 kPa, Gas",0.01675 ± 0.00056 W/m/K
same,thermal conductivity,"332.69 K, 819 kPa, Gas",0.0169 ± 0.00057 W/m/K
same,thermal conductivity,"332.71 K, 1385 kPa, Gas",0.0177 ± 0.00031 W/m/K
same,thermal conductivity,"332.75 K, 202 kPa, Gas",0.01687 ± 0.00056 W/m/K
same,thermal conductivity,"332.81 K, 626 kPa, Gas",0.01677 ± 0.00056 W/m/K
same,thermal conductivity,"332.81 K, 1233 kPa, Gas",0.01741 ± 0.00031 W/m/K
same,thermal conductivity,"332.91 K, 1072 kPa, Gas",0.01718 ± 0.00031 W/m/K
same,thermal conductivity,"332.91 K, 1511 kPa, Gas",0.01803 ± 0.00032 W/m/K
same,thermal conductivity,"332.92 K, 461 kPa, Gas",0.01677 ± 0.00056 W/m/K
same,thermal conductivity,"332.95 K, 101 kPa, Gas",0.01705 ± 0.00057 W/m/K
same,thermal conductivity,"332.96 K, 972 kPa, Gas",0.01706 ± 0.00057 W/m/K
same,thermal conductivity,"333.04 K, 299 kPa, Gas",0.01681 ± 0.00056 W/m/K
same,thermal conductivity,"333.04 K, 1384 kPa, Gas",0.0177 ± 0.00031 W/m/K
same,thermal conductivity,"333.05 K, 818 kPa, Gas",0.01692 ± 0.00057 W/m/K
same,thermal conductivity,"333.14 K, 1232 kPa, Gas",0.01741 ± 0.00031 W/m/K
same,thermal conductivity,"333.15 K, 202 kPa, Gas",0.01686 ± 0.00056 W/m/K
same,thermal conductivity,"333.15 K, Liquid",0.05329 ± 0.00041 W/m/K
same,thermal conductivity,"333.18 K, 625 kPa, Gas",0.01682 ± 0.00056 W/m/K
same,thermal conductivity,"333.26 K, 1071 kPa, Gas",0.0172 ± 0.00031 W/m/K
same,thermal conductivity,"333.3 K, 460 kPa, Gas",0.01681 ± 0.00056 W/m/K
same,thermal conductivity,"333.31 K, 972 kPa, Gas",0.01708 ± 0.00057 W/m/K
same,thermal conductivity,"333.38 K, 101 kPa, Gas",0.01705 ± 0.00057 W/m/K
same,thermal conductivity,"333.41 K, 817 kPa, Gas",0.01696 ± 0.00057 W/m/K
same,thermal conductivity,"333.45 K, 300 kPa, Gas",0.01686 ± 0.00056 W/m/K
same,thermal conductivity,"333.56 K, 624 kPa, Gas",0.01687 ± 0.00056 W/m/K
same,thermal conductivity,"333.57 K, 202 kPa, Gas",0.01692 ± 0.00057 W/m/K
same,thermal conductivity,"333.69 K, 460 kPa, Gas",0.01685 ± 0.00056 W/m/K
same,thermal conductivity,"333.83 K, 102 kPa, Gas",0.0171 ± 0.00057 W/m/K
same,thermal conductivity,"333.87 K, 300 kPa, Gas",0.01688 ± 0.00056 W/m/K
same,thermal conductivity,"334.02 K, 202 kPa, Gas",0.01695 ± 0.00057 W/m/K
same,thermal conductivity,"334.31 K, 102 kPa, Gas",0.01716 ± 0.00057 W/m/K
same,thermal conductivity,"341.28 K, 102 kPa, Gas",0.01759 ± 0.00059 W/m/K
same,thermal conductivity,"341.35 K, 201 kPa, Gas",0.01779 ± 0.00059 W/m/K
same,thermal conductivity,"341.39 K, 303 kPa, Gas",0.01795 ± 0.0006 W/m/K
same,thermal conductivity,"341.45 K, 17165 kPa, Liquid",0.0645 ± 0.00072 W/m/K
same,thermal conductivity,"341.49 K, 102 kPa, Gas",0.01745 ± 0.00058 W/m/K
same,thermal conductivity,"341.52 K, 12122 kPa, Liquid",0.06134 ± 0.00069 W/m/K
same,thermal conductivity,"341.52 K, 21726 kPa, Liquid",0.06742 ± 0.00075 W/m/K
same,thermal conductivity,"341.55 K, 17165 kPa, Liquid",0.06461 ± 0.00073 W/m/K
same,thermal conductivity,"341.56 K, 200 kPa, Gas",0.01761 ± 0.00059 W/m/K
same,thermal conductivity,"341.6 K, 303 kPa, Gas",0.01775 ± 0.00059 W/m/K
same,thermal conductivity,"341.6 K, 8202 kPa, Liquid",0.05839 ± 0.00066 W/m/K
same,thermal conductivity,"341.61 K, 21724 kPa, Liquid",0.06756 ± 0.00075 W/m/K
same,thermal conductivity,"341.62 K, 12120 kPa, Liquid",0.06114 ± 0.00069 W/m/K
same,thermal conductivity,"341.69 K, 5189 kPa, Liquid",0.05547 ± 0.00063 W/m/K
same,thermal conductivity,"341.7 K, 8198 kPa, Liquid",0.05823 ± 0.00066 W/m/K
same,thermal conductivity,"341.73 K, 103 kPa, Gas",0.01734 ± 0.00058 W/m/K
same,thermal conductivity,"341.77 K, 2101 kPa, Liquid",0.05131 ± 0.00059 W/m/K
same,thermal conductivity,"341.79 K, 200 kPa, Gas",0.0175 ± 0.00058 W/m/K
same,thermal conductivity,"341.8 K, 5187 kPa, Liquid",0.05524 ± 0.00063 W/m/K
same,thermal conductivity,"341.8 K, 17162 kPa, Liquid",0.0647 ± 0.00073 W/m/K
same,thermal conductivity,"341.82 K, 302 kPa, Gas",0.01766 ± 0.00059 W/m/K
same,thermal conductivity,"341.85 K, 21720 kPa, Liquid",0.06741 ± 0.00075 W/m/K
same,thermal conductivity,"341.88 K, 12117 kPa, Liquid",0.06141 ± 0.00069 W/m/K
same,thermal conductivity,"341.89 K, 2100 kPa, Liquid",0.05083 ± 0.00059 W/m/K
same,thermal conductivity,"341.92 K, 17160 kPa, Liquid",0.06488 ± 0.00073 W/m/K
same,thermal conductivity,"341.96 K, 103 kPa, Gas",0.01726 ± 0.00058 W/m/K
same,thermal conductivity,"341.96 K, 21718 kPa, Liquid",0.06759 ± 0.00075 W/m/K
same,thermal conductivity,"341.98 K, 8198 kPa, Liquid",0.05827 ± 0.00066 W/m/K
same,thermal conductivity,"342.01 K, 12114 kPa, Liquid",0.06141 ± 0.00069 W/m/K
same,thermal conductivity,"342.02 K, 199 kPa, Gas",0.01743 ± 0.00058 W/m/K
same,thermal conductivity,"342.03 K, 1842 kPa, Gas",0.01945 ± 0.00034 W/m/K
same,thermal conductivity,"342.03 K, 1904 kPa, Gas",0.01996 ± 0.00035 W/m/K
same,thermal conductivity,"342.04 K, 1737 kPa, Gas",0.0191 ± 0.00034 W/m/K
same,thermal conductivity,"342.05 K, 302 kPa, Gas",0.01758 ± 0.00059 W/m/K
same,thermal conductivity,"342.07 K, 1574 kPa, Gas",0.01854 ± 0.00033 W/m/K
same,thermal conductivity,"342.08 K, 5185 kPa, Liquid",0.0553 ± 0.00063 W/m/K
same,thermal conductivity,"342.11 K, 8197 kPa, Liquid",0.05815 ± 0.00066 W/m/K
same,thermal conductivity,"342.16 K, 1405 kPa, Gas",0.01818 ± 0.00032 W/m/K
same,thermal conductivity,"342.17 K, 951 kPa, Gas",0.01775 ± 0.00059 W/m/K
same,thermal conductivity,"342.18 K, 17158 kPa, Liquid",0.06504 ± 0.00073 W/m/K
same,thermal conductivity,"342.19 K, 814 kPa, Gas",0.0177 ± 0.00059 W/m/K
same,thermal conductivity,"342.19 K, 2098 kPa, Liquid",0.05099 ± 0.00058 W/m/K
same,thermal conductivity,"342.21 K, 103 kPa, Gas",0.01718 ± 0.00057 W/m/K
same,thermal conductivity,"342.22 K, 5183 kPa, Liquid",0.05512 ± 0.00063 W/m/K
same,thermal conductivity,"342.22 K, 21716 kPa, Liquid",0.0677 ± 0.00076 W/m/K
same,thermal conductivity,"342.26 K, 605 kPa, Gas",0.01764 ± 0.00059 W/m/K
same,thermal conductivity,"342.27 K, 199 kPa, Gas",0.01735 ± 0.00058 W/m/K
same,thermal conductivity,"342.27 K, 1842 kPa, Gas",0.01963 ± 0.00034 W/m/K

# Source: the NIST ThermoML archive (doi:10.1021/je200811n)
